Laboratory results from ChEMBL document CHEMBL1201862, “PubChem BioAssay data set” (2004).
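Briefly, cells in 96-well plates were exposed to five compound concentrations for 48 h, and endpoints were estimated by linear interpolation. GI50: concentration for 50% inhibition of growth.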 Activity calls are given as the source filed them. No stated cut-off is given here; in the data, active = GI50 up to about 1.1 µM and inactive = higher.

Key:
Test in all cases: growth of human tumour cells (NCI), 48 h
T47D = tested on: T47D
LOX IMVI = tested on: LOX IMVI
U-251 = tested on: U-251
UACC-62 = tested on: UACC-62
TK-10 = tested on: TK-10
IGROV-1 = tested on: IGROV-1
MDA-MB-435 = tested on: MDA-MB-435
CCRF-CEM = tested on: CCRF-CEM
A549 = tested on: A549
MOLT-4 = tested on: MOLT-4
SF-539 = tested on: SF-539
CAKI-1 = tested on: CAKI-1
UO-31 = tested on: UO-31
HL-60 = tested on: HL-60
K562 = tested on: K562
MDA-MB-231 = tested on: MDA-MB-231
SK-OV-3 = tested on: SK-OV-3
UACC-257 = tested on: UACC-257
A498 = tested on: A498
OVCAR-8 = tested on: OVCAR-8

SMILES | GI50 (T47D) | GI50 (LOX IMVI) | GI50 (U-251) | GI50 (UACC-62) | GI50 (TK-10) | GI50 (IGROV-1) | GI50 (MDA-MB-435) | GI50 (CCRF-CEM) | GI50 (A549) | GI50 (MOLT-4) | GI50 (SF-539) | GI50 (CAKI-1) | GI50 (UO-31) | GI50 (HL-60) | GI50 (K562) | GI50 (MDA-MB-231) | GI50 (SK-OV-3) | GI50 (UACC-257) | GI50 (A498) | GI50 (OVCAR-8)
Cc1ccc(S(=O)(=O)n2c3c(c4ccccc42)CCN2C(=O)C(S(=O)(=O)c4ccccc4)=CCC32)cc1 (stereo not given) | 0.154 µM (active) | 0.185 µM (active) | 0.22 µM (active) | 0.27 µM (active) | 0.0646 µM (active) | 0.184 µM (active) | 0.211 µM (active) | 0.228 µM (active) | 1.22 µM (inactive) | 0.304 µM (active) | 0.191 µM (active) | 0.262 µM (active) | 0.234 µM (active) | 0.233 µM (active) | 0.202 µM (active) | 0.186 µM (active) | 1.3 µM (inactive) | 0.169 µM (active) | 0.213 µM (active) | 0.167 µM (active)
CCOC(=O)N/N=C(/OCC)c1ccccc1 | > 100 µM (inactive) | > 100 µM (inactive) | > 100 µM (inactive) | > 100 µM (inactive) | > 100 µM (inactive) | > 100 µM (inactive) | > 100 µM (inactive) | > 100 µM (inactive) | > 100 µM (inactive) | > 100 µM (inactive) | > 100 µM (inactive) | > 100 µM (inactive) | > 100 µM (inactive) | > 100 µM (inactive) | > 100 µM (inactive) | > 100 µM (inactive) | > 100 µM (inactive) | > 100 µM (inactive) | > 100 µM (inactive) | > 100 µM (inactive)
Cc1cc(C)c(C)c(-n2[nH]c(=O)n(C)c2=O)c1C | > 100 µM (inactive) | 99.3 µM (inactive) | > 100 µM (inactive) | > 100 µM (inactive) | > 100 µM (inactive) | > 100 µM (inactive) | > 100 µM (inactive) | > 100 µM (inactive) | > 100 µM (inactive) | > 100 µM (inactive) | > 100 µM (inactive) | > 100 µM (inactive) | > 100 µM (inactive) | > 100 µM (inactive) | > 100 µM (inactive) | > 100 µM (inactive) | > 100 µM (inactive) | > 100 µM (inactive) | > 100 µM (inactive) | > 100 µM (inactive)
O=C(O)CN1CCNCCNCC1 | > 100 µM (inactive) | > 100 µM (inactive) | > 100 µM (inactive) | > 100 µM (inactive) | > 100 µM (inactive) | > 100 µM (inactive) | > 100 µM (inactive) | > 100 µM (inactive) | > 100 µM (inactive) | > 100 µM (inactive) | > 100 µM (inactive) | > 100 µM (inactive) | > 100 µM (inactive) | 0.9 µM (active) | > 100 µM (inactive) | > 100 µM (inactive) | > 100 µM (inactive) | > 100 µM (inactive) | > 100 µM (inactive) | > 100 µM (inactive)
OCC(O)COCn1cc(Cn2ncc3c(O)ncnc32)nn1 (stereo not given) | > 100 µM (inactive) | > 100 µM (inactive) | > 100 µM (inactive) | > 100 µM (inactive) | > 100 µM (inactive) | > 100 µM (inactive) | > 100 µM (inactive) | > 100 µM (inactive) | > 100 µM (inactive) | > 100 µM (inactive) | > 100 µM (inactive) | > 100 µM (inactive) | > 100 µM (inactive) | > 100 µM (inactive) | > 100 µM (inactive) | > 100 µM (inactive) | > 100 µM (inactive) | > 100 µM (inactive) | > 100 µM (inactive) | > 100 µM (inactive)
CC(CC[C@@]1(O)OC2C[C@H]3[C@@H]4CC[C@H]5CC(OC6OC(CO)C(OC7OC(CO)C(O)C(OC8OCC(O)C(O)C8O)C7OC7OC(CO)C(O)C(O)C7O)C(O)C6O)[C@H](O)CC5(C)[C@H]4CCC3(C)C2[C@@H]1C)COC1OC(CO)C(O)C(O)C1O (stereo not given in full) | 12.2 µM (inactive) | 8.97 µM (inactive) | 15.5 µM (inactive) | 16.4 µM (inactive) | 2.39 µM (inactive) | 11.3 µM (inactive) | 14.8 µM (inactive) | 3.26 µM (inactive) | 3.47 µM (inactive) | 2.45 µM (inactive) | 3.73 µM (inactive) | 4.76 µM (inactive) | 6.84 µM (inactive) | 6.9 µM (inactive) | 16.6 µM (inactive) | 25.9 µM (inactive) | 13.2 µM (inactive) | 15.8 µM (inactive) | 18.9 µM (inactive) | 9.86 µM (inactive)
C[C@]12CC[C@H]3[C@@H](CCC4=CC(=O)CC[C@@]43C)[C@@H]1CC[C@@H]2C(=O)Nc1ccc([N+](=O)[O-])c(C(F)(F)F)c1 | 15.6 µM (inactive) | 15.8 µM (inactive) | 17.1 µM (inactive) | 15.3 µM (inactive) | 19 µM (inactive) | 22.8 µM (inactive) | 18 µM (inactive) | 24.7 µM (inactive) | 17.9 µM (inactive) | 24.2 µM (inactive) | 18.7 µM (inactive) | 18.7 µM (inactive) | 16.6 µM (inactive) | 39.4 µM (inactive) | 26.6 µM (inactive) | 17.1 µM (inactive) | 12.7 µM (inactive) | > 10 µM (inactive) | 17.6 µM (inactive) | 26.4 µM (inactive)
O=C(CC(C(=O)c1cccs1)c1ccsc1)c1ccc(Cl)cc1 (stereo not given) | > 100 µM (inactive) | > 100 µM (inactive) | > 100 µM (inactive) | > 100 µM (inactive) | > 100 µM (inactive) | > 100 µM (inactive) | > 100 µM (inactive) | > 100 µM (inactive) | > 100 µM (inactive) | > 100 µM (inactive) | > 100 µM (inactive) | > 100 µM (inactive) | > 100 µM (inactive) | > 100 µM (inactive) | > 100 µM (inactive) | > 100 µM (inactive) | > 100 µM (inactive) | > 100 µM (inactive) | > 100 µM (inactive) | > 100 µM (inactive)
S=C1N=C(Cl)/C(=C\c2ccccc2)N1 | > 100 µM (inactive) | > 100 µM (inactive) | > 100 µM (inactive) | > 100 µM (inactive) | > 100 µM (inactive) | > 100 µM (inactive) | > 100 µM (inactive) | > 31.6 µM (inactive) | > 83.6 µM (inactive) | > 100 µM (inactive) | > 100 µM (inactive) | > 100 µM (inactive) | > 100 µM (inactive) | > 100 µM (inactive) | > 100 µM (inactive) | > 100 µM (inactive) | > 100 µM (inactive) | > 100 µM (inactive) | > 100 µM (inactive) | > 100 µM (inactive)
CC(CN(C)C)C(=O)/C=C/c1ccc(Cl)c(Cl)c1 (stereo not given) | 24.7 µM (inactive) | 1.56 µM (inactive) | 1.26 µM (inactive) | 1.8 µM (inactive) | 2.02 µM (inactive) | 1.78 µM (inactive) | 1.63 µM (inactive) | 0.453 µM (active) | 3.33 µM (inactive) | 2.67 µM (inactive) | 1.46 µM (inactive) | 2 µM (inactive) | 1.69 µM (inactive) | 1.62 µM (inactive) | 3.01 µM (inactive) | 1.73 µM (inactive) | 4.55 µM (inactive) | 2.38 µM (inactive) | 1.78 µM (inactive) | 1.52 µM (inactive)
NS(=O)(=O)c1ccc(/N=N/c2nc3[nH]cnc(=S)c3[nH]2)cc1 | 1.16 µM (inactive) | 0.236 µM (active) | 6.24 µM (inactive) | 0.388 µM (active) | 0.474 µM (active) | 7.29 µM (inactive) | 0.975 µM (active) | 0.0902 µM (active) | 4.93 µM (inactive) | 0.134 µM (active) | 3.92 µM (inactive) | 1.42 µM (inactive) | 0.849 µM (active) | 2.77 µM (inactive) | 0.3 µM (active) | 1.21 µM (inactive) | 0.411 µM (active) | 2.94 µM (inactive) | 23 µM (inactive) | 0.593 µM (active)
CC/C=N\N1C(N)=C(C#N)C(C#N)(C#N)C1CC (stereo not given) | > 100 µM (inactive) | 49 µM (inactive) | 58.6 µM (inactive) | 59.4 µM (inactive) | > 100 µM (inactive) | 63.1 µM (inactive) | 50.6 µM (inactive) | 36.1 µM (inactive) | > 100 µM (inactive) | 39 µM (inactive) | 26.2 µM (inactive) | > 100 µM (inactive) | > 100 µM (inactive) | 35.8 µM (inactive) | 52.7 µM (inactive) | > 100 µM (inactive) | > 100 µM (inactive) | > 100 µM (inactive) | > 100 µM (inactive) | 44.9 µM (inactive)
NC(=O)c1nnc2c(F)cccc2c1N | > 100 µM (inactive) | 52 µM (inactive) | > 100 µM (inactive) | 73.8 µM (inactive) | > 100 µM (inactive) | > 100 µM (inactive) | 77.3 µM (inactive) | 28.7 µM (inactive) | 84.5 µM (inactive) | > 100 µM (inactive) | > 100 µM (inactive) | > 100 µM (inactive) | 56 µM (inactive) | > 100 µM (inactive) | 55.1 µM (inactive) | > 100 µM (inactive) | 45.2 µM (inactive) | > 100 µM (inactive) | > 100 µM (inactive) | > 100 µM (inactive)
CC1C(C#N)(C#N)C(C#N)=C(N)C1(C)[N+](=O)[O-] (stereo not given) | > 10 µM (inactive) | 37.7 µM (inactive) | 48 µM (inactive) | 50.4 µM (inactive) | > 100 µM (inactive) | 37.2 µM (inactive) | 45.7 µM (inactive) | 32.4 µM (inactive) | 23.5 µM (inactive) | 25.4 µM (inactive) | 31.5 µM (inactive) | 5.27 µM (inactive) | > 100 µM (inactive) | 29.8 µM (inactive) | 29.9 µM (inactive) | > 100 µM (inactive) | > 100 µM (inactive) | 79.8 µM (inactive) | 68.2 µM (inactive) | 65.8 µM (inactive)
